56 compounds from ChEMBL document CHEMBL6083259, “Discovery of quinazoline-benzothiazole derivatives as novel potent protease-activated receptor 4 antagonists with improved pharmacokinetics and low bleeding liability” (Eur J Med Chem, 2024) can be followed below.

As usually defined, the inhibition is the relative decrease from the control value, in per cent.

One data set concerns the target T1, Proteinase-activated receptor 4 (Homo sapiens) (UniProt Q96RI0).
T1 sequence (whole entry): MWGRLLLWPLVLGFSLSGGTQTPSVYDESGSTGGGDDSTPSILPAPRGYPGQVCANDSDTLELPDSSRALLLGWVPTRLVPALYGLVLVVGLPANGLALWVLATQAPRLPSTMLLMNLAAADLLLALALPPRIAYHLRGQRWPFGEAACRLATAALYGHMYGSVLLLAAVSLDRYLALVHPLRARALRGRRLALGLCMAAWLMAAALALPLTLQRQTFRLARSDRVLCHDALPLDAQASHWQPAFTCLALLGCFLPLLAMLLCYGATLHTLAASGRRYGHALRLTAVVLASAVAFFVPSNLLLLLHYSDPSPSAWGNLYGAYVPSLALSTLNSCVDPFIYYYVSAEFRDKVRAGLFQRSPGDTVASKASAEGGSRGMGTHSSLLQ
In words: Antagonist activity at PAR4 in human platelet rich plasma assessed as inhibition of gamma-PAR4 agonist peptide (AYPGKF-NH2)-induced platelet aggregation at 200 nM preincubated for 5 mins followed by peptide addition and measured after 5 mins by aggregometer relative to control. In kind it is cell-based. To be noted: filed as antagonist, time 10.0 min.
For the compound `COc1cc(Cl)c2nc(-c3cc(C)cc4cnc(N5CCOCC5)nc34)sc2c1`, the inhibition was 52.3%.
Still for that read-out and setting: as for `CCOc1ncc2c(-c3nc4cc(F)c(OC)cc4s3)cc(C)cc2n1`, the figure is 40.4%.
Turning to `COc1cc2sc(-c3cc(C)cc4nc(SC)ncc34)nc2cc1F`, the inhibition came to 74.8%.
In the case of `COc1ccc2nc(-c3cc(C)cc4nc(OC(C)C)ncc34)sc2c1`, the inhibition was found to be 42.9%.
As to `COc1ccc(NC(=O)OC[C@H]2Cc3c(c(F)cc4nc(-c5cc(C)cc6nc(OC)ncc56)sc34)O2)c(C)c1`, the inhibition turned out to be 55.3%.
In the case of `COc1cc(Cl)c2nc(-c3cc(C)cc4nc(SC)ncc34)sc2c1`, the inhibition came to 68.2%.
As for `COCOc1ncc2c(-c3nc4c(F)cc(OC)cc4s3)cc(C)cc2n1`, the inhibition is 77.4%.
Same read-out and setting: the result for `COc1cc(Cl)c2nc(-c3cc(C)cc4cnc(OC(F)F)nc34)sc2c1` reads 74.5%.
For `COc1ncc2c(-c3nc4cc(F)c(OCCO)cc4s3)cc(C)cc2n1`, the inhibition was found to be 84.1%.
For the compound `COCc1ncc2c(-c3nc4cc(F)c(OCCOC(=O)Nc5ccc(C(=O)N6CCOCC6)cc5)cc4s3)cc(C)cc2n1`, the inhibition was determined as 67.1%.
As to `COc1cc(F)c2nc(-c3cc(C)cc4nc(OC)ncc34)sc2c1`, the inhibition worked out at 78.8%.
Consider `COCOc1ncc2c(-c3nc4ccc(OC)cc4s3)cc(C)cc2n1`, for which the inhibition turned out to be 73.9%.
Regarding `COc1ncc2c(-c3nc4cc(F)c5c(c4s3)C[C@H](COC(=O)Nc3ccc(C)cc3)O5)cc(C)cc2n1`, the inhibition was 79.6%.
Take `COc1cc(Cl)c2nc(-c3cc(C)cc4cncnc34)sc2c1`: the inhibition is 82.3%.
Still for that read-out and setting: the result for `COc1ncc2c(-c3nc4cc(F)c5c(c4s3)C[C@H](COC(=O)N3CCOCC3)O5)cc(C)cc2n1` reads 64.7%; that for `COCOc1ncc2c(-c3nc4c(Cl)cc(OC)cc4s3)cc(C)cc2n1`, 83.8%; that for `CNc1ncc2cc(C)cc(-c3nc4c(Cl)cc(OC)cc4s3)c2n1`, 58.1%.
The same measure, in the same setting: the result for `COc1cc(Cl)c2nc(-c3cc(C)cc4cnc(C)nc34)sc2c1` reads 85.7%.
On to `COCOc1ncc2c(-c3nc4cc(F)c(OC)cc4s3)cc(C)cc2n1`, for which the inhibition was determined as 86.5%.
On the same count and under the same terms, as for `COc1cc(F)c2nc(-c3cc(C)cc4cnc(OC)nc34)sc2c1`, the figure is 89.6%; as for `CNc1ncc2c(-c3nc4c(Cl)cc(OC)cc4s3)cc(C)cc2n1`, 58.7%.
As for `COc1ncc2c(-c3nc4cc(F)c5c(c4s3)C[C@@H](COC(=O)N3CCOCC3)O5)cc(C)cc2n1`, the inhibition turned out to be 47.6%.
On to `COc1ncc2c(-c3nc4cc(F)c5c(c4s3)C[C@@H](COC(=O)Nc3cc(F)cc(C#N)c3)O5)cc(C)cc2n1`, for which the inhibition was 65.8%.
For `COc1cc(C)c2nc(-c3cc(C)cc4nc(OC)ncc34)sc2c1`, the inhibition turned out to be 70.2%.
As for `COc1ncc2c(-c3nc4cc(F)c5c(c4s3)C[C@H](COC(=O)Nc3ccc(C)cc3F)O5)cc(C)cc2n1`, the inhibition came out at 82.7%.
With `CCOc1ncc2c(-c3nc4c(Cl)cc(OC)cc4s3)cc(C)cc2n1`, the inhibition turned out to be 43.4%.
On to `COc1ccc(NC(=O)OC[C@H]2Cc3c(c(F)cc4nc(-c5cc(C)cc6nc(OC)ncc56)sc34)O2)cc1`, for which the inhibition stood at 70.5%.
Take `COc1ncc2c(-c3nc4cc(F)c5c(c4s3)C[C@H](COC(=O)Nc3ccc(OC)c(F)c3)O5)cc(C)cc2n1`: the inhibition worked out at 59.6%.
As to `COc1cc(Cl)c2nc(-c3cc(C)cc4cnc(SC)nc34)sc2c1`, the inhibition was 69.2%.
As to `COCc1ncc2c(-c3nc4cc(F)c(OCCOC(=O)Nc5cccc(C#N)c5)cc4s3)cc(C)cc2n1`, the inhibition is 77.1%.
Take `COc1ncc2cc(C)cc(-c3nc4cc(F)c(OC)cc4s3)c2n1`: the inhibition is 90.2%.
The same measure, in the same setting: as for `COc1ncc2cc(C)cc(-c3nc4c(C)cc5c(c4s3)OCCO5)c2n1`, the figure is 65.3%.
In the case of `COc1ccc2nc(-c3cc(C)cc4nc(SC)ncc34)sc2c1`, the inhibition amounted to 62.3%.
As for `COc1ccc2nc(-c3cc(C)cc4nc(OC)ncc34)sc2c1`, the inhibition came to 77.4%.
With `COc1cc(Cl)c2nc(-c3cc(C)cc4nc(OC)ncc34)sc2c1`, the inhibition stood at 85.2%.
Still for that read-out and setting: the result for `COc1cc(Cl)c2nc(-c3cc(C)cc4cnc(N(C)C)nc34)sc2c1` reads 47.6%.
`COc1ncc2c(-c3nc4cc(F)c(OC)cc4s3)cc(C)cc2n1`: the inhibition stood at 88.3%.
In the case of `COc1cc(OC)c2nc(-c3cc(C)cc4nc(OC)ncc34)sc2c1`, the inhibition was 47.8%.
In the case of `COc1ncc2c(-c3nc4ccccc4s3)cc(C)cc2n1`, the inhibition is 49.6%.
Same read-out and setting: the result for `COc1ccc2nc(-c3cc(C)cc4cnc(OC)nc34)sc2c1` reads 79.8%; that for `COc1ncc2c(-c3nc4cc(F)c5c(c4s3)C[C@@H](COC(=O)Nc3ccc(C(=O)N4CCOCC4)cc3)O5)cc(C)cc2n1`, 61.2%.
With `COc1cc(Cl)c2nc(-c3cc(C)cc4cnc(OC)nc34)sc2c1`, the inhibition came to 86.4%.

Still in this data set, the particulars now being: time 10.0 min.
As for `COCc1ncc2c(-c3nc4cc(F)c(OCCOC(=O)N5CCOCC5)cc4s3)cc(C)cc2n1`, the inhibition was found to be 34.5%.
Regarding `COc1ncc2c(-c3nc4cc(F)c5c(c4s3)C[C@H](COC(=O)Nc3cnc(C)nc3)O5)cc(C)cc2n1`, the inhibition came out at 27.5%.
Consider `COc1ncc2cc(C)cc(-c3nc4c(Cl)cc(Cl)cc4s3)c2n1`, for which the inhibition was found to be 34.7%.
Still for that read-out and setting: as for `CCOc1ncc2cc(C)cc(-c3nc4c(Cl)cc(OC)cc4s3)c2n1`, the figure is 36.7%.
Regarding `COc1ccc(NC(=O)OC[C@H]2Cc3c(c(F)cc4nc(-c5cc(C)cc6nc(OC)ncc56)sc34)O2)cn1`, the inhibition came out at 32.9%.
Take `COc1ncc2cc(C)cc(-c3nc4ccccc4s3)c2n1`: the inhibition was found to be 29.7%.
Turning to `COc1cc(Cl)c2nc(-c3cc(C)cc4nc(OC(C)C)ncc34)sc2c1`, the inhibition was 37.7%.
With `CCOc1ncc2c(-c3nc4c(F)cc(OC)cc4s3)cc(C)cc2n1`, the inhibition is 39.1%.
For the compound `COc1ncc2c(-c3nc4cc(F)c5c(c4s3)C[C@H](COC(=O)Nc3ccc(C(=O)N4CCOCC4)cc3)O5)cc(C)cc2n1`, the inhibition stood at 38.1%.
In the case of `COc1cc(Cl)c2nc(-c3cc(C)cc4cnc(OC(C)C)nc34)sc2c1`, the inhibition came to 26.3%.
On the same count and under the same terms, as for `COC(=O)OC[C@H]1Cc2c(c(F)cc3nc(-c4cc(C)cc5nc(OC)ncc45)sc23)O1`, the figure is 34.9%.
Same read-out and setting: as for `COc1cc(Cl)c2nc(-c3cc(C)cc4cnc(N5CCCCC5)nc34)sc2c1`, the figure is 39.5%; as for `COCc1ncc2c(-c3nc4cc(F)c(OCCOC(=O)OC)cc4s3)cc(C)cc2n1`, 35.3%.

System in the next data set: not listed separately
In words: Toxicity in male C57BL/6 mouse assessed as prolongation of bleeding time at 10 mg/kg, po measured after 1.5 hrs by tail bleeding assay. To be noted: in vivo. In kind it is organism-based.
Take `COC(=O)[C@H](c1ccccc1Cl)N1CCc2sccc2C1` [CLOPIDOGREL]: the Activity entry is given as “Toxic”.
